Consider 1 compound from patent US20040229246A1, “Diagnostic markers for therapeutic treatment” (Can-Fite Biopharam Ltd., priority 2002, published 2004).

Test [1] deals with A3AR, NF-κB, c-myc, cyclin D1. Description: Immunoblot analysis of proteins extracted from prostate carcinoma (PC-3) cells. In kind it is cell-based. As for the experimental part: To detect the level of expression of the A3AR proteins Western blot analysis was performed. Cells were incubated in the presence and absence of IB-MECA (10 nM), MRS1523 (10 nM), Forskolin (50 nM), 8 Br cAMP (100 μM), Cycloheximide 20 μg/ml or MG 132 (20 nM) for different time periods at 37° C. Cells were then rinsed with ice-cold PBS and transferred to ice-cold lysis buffer (TNN buffer, 50 mM Tris buffer pH=7.5, 150 mM NaCl, NP 40). In the experiment examining the effect of trypsin on A3AR expression, cells were incubated with 0.5 ml of 0.25% trypsin for 5 minutes. The trypsinized cells were washed again with ice-cold PBS, harvested by centrifugation and subjected to lysis in TNN buffer. Cell debris was removed by centrifugation for 10 minutes, at 7500 xg. The supernatant was utilized for Western Blot analysis. Protein concentrations were determined using the Bio-Rad protein assay dye reagent. Equal amounts of the sample (50 μg) were separated by SDS-PAGE, using 12% polyacrylamide gels. The resolved proteins were then electroblotted onto nitrocellulose membranes (Schleicher & Schuell, Keene, NH, USA). Membranes were blocked with 1% bovine serum albumin and incubated with the desired primary antibody (dilution 1:1000) for 24 hours at 4° C. Blots were then washed and incubated with a secondary antibody for 1 hour at room temperature. Bands were recorded using BCIP/NBT color development kit (Promega, Madison, W1, USA). Data presented in the different figures are representative of at least three different experiments.
The effect of IB-MECA on key proteins downstream to A3AR activation in prostate carcinoma cells was also examined in a manner similar to that performed with melanoma cells (see above).
For orientation: Immunoblotting shows a protein as a band on a membrane.

Test [2] relates to A3AR, A2AR, PI3K, PKB/Akt, IKKα/β, NF-κB, TNF-α, GSK-3β, caspase-3. The experiment in a line: Western blot of A3AR and downstream signaling proteins in DLN and synovial tissue of AIA rats. In kind it is in vivo. As for the experimental part: AIA in Rats: Female Lewis rats, aged 8-12 weeks, obtained from Harlan Laboratories (Jerusalem, Israel), were injected subcutaneously (s.c.) at the tail base with 100 μl of suspension composed of incomplete Freund's adjuvant (IFA) with 10 mg/ml heat killed Mycobacterium tuberculosis, (Mt) H37Ra, (Difco, Detroit, USA). To assess the clinical disease activity score, the animals were inspected every second day for clinical arthritis. The scoring system ranged from 0-4 of each limb: 0-no arthritis; 1-redness or swelling of one toe/finger joint; 2-redness and swelling of more than one toe/finger joints; 3-the ankle and tarsal-metatarsal joints involvement; 4-entire paw redness or swelling. The arthritic score was calculated by adding the four individual legs' score to a maximum of 16. For histological scoring, Animals were sacrificed, the legs were removed up to the knee level, fixed in 10% formaldehyde, decalcified, dehydrated, paraffin-embedded, cut into 4 μm sections and stained by Hematoxylin-Eosin. The assessment of all pathologic findings were performed blind using semi-quantitative grading scales of 0 to 4 for the following parameters: a) extent of inflammatory cells' infiltration to the joint tissues; b) synovial lining cell hyperplasia; c) pannus formation; and d) joint cartilage layers destruction. A fifth parameter, bone damage and erosion, was graded 0-5: 0-normal; 1-minimal loss of cortical bone at a few sites; 2-mild loss of cortical trabecular bone; 3-moderate loss of bone at many sites; 4-marked loss of bone at many sites; 5-marked loss of bone at many sites with fragmenting and full thickness penetration of inflammatory process or pannus into the cortical bone The mean of all the histological parameters scores were designated “Histology Score”. TNF-α was measured in synovia, DLN and spleen tissues derived from control and CF101 treated rats. To detect the level of expression of TNF-α, WB analysis was performed. Spleen and DLN mononuclear cells and synovial tissue were rinsed with ice-cold PBS and transferred to ice-cold lysis buffer (TNN buffer, 50 mM Tris buffer pH=7.5, 150 mM NaCl, NP 40 0.5% for 20 minutes). Cell debris was removed by centrifugation for 10 minutes, at 7500 g. The supernatant was utilized for WB analysis. Protein concentrations were determined using the Bio-Rad protein assay dye reagent. Equal amounts of the sample (50 μg) were separated by SDS-PAGE, using 12% polyacrylamide gels. The resolved proteins were then electro-blotted onto nitrocellulose membranes (Schleicher & Schuell, Keene, NH, USA). Membranes were blocked with 1% bovine serum albumin and incubated with polyclonal goat anti-rat TNF-α antibodies (dilution 1:1000) (Santa Cruz Biotechnology Inc., CA, USA) for 24 hours at 4° C. Blots were then washed and incubated with rabbit anti-goat polyclonal antibodies for 1 hour at room temperature. Bands were recorded using BCIP/NBT color development kit (Promega, Madison, Wis., USA). Densitometry of protein expression was normalized against β-actin and expressed as % of control.
Adjuvant induced arthritis (AIA) was induced in rats as described above. Rats were treated orally twice daily with either (i) vehicle (these rats serving as control), (ii) 10 μg/kg IB-MECA or with (ii) the specific A3AR […] MRS 1220 followed 30 minutes later by IB-MECA. The […] were sacrificed on day 28 for histological scoring and measurement of signaling proteins and TNF-α.

With `CNC(=O)[C@H]1O[C@@H](n2cnc3c(NCc4cccc(I)c4)ncnc32)[C@H](O)[C@@H]1O` [IB-MECA, 1-deoxy-1-[6[[(3-iodophenyl)methyl]amino]-9H-purine-9-yl]-N-methyl-β-D-ribofura-nuronaminde], in test [1], the A3AR level result is recorded as “down-regulation”, the NF-κB level entry is recorded as “down-regulation”, the c-myc level entry is “down-regulation” and the “cyclin D1 level” value is listed as “down-regulation”. In test [2] (DLN), the GSK-3β level result is “up-regulation”, the PI3K level entry was “down-regulation” and the caspase-3 level entry is recorded as “up-regulation”. In addition, in test [2] (DLN and synovial tissue), the IKKα/β level entry is listed as “down-regulation”, the NF-κB level result is given as “down-regulation” and the TNF-α level result is reported as “down-regulation”. For the same compound, in test [2] (DLN, Western blot), the “level of the A2 adenosine receptor (A2AR)” value is given as “no effect” and the “level of the A3AR” value is “down-regulation”. The PKB/Akt level result in test [2] (DLN, protein expression and activity) is listed as “down-regulation”.
